Laboratory results from patent US11135234B2, “Effective aminoglycoside antibiotic for multidrug-resistant bacteria” (MICROBIAL CHEMISTRY RESEARCH FOUNDATION, priority 2015, dated 2021).
Converted amounts (≈) assume the structure as drawn.

How the values were obtained:
P. aeruginosa PAO1 = assay: MIC, agar plate dilution method, P. aeruginosa PAO1; assay type: cell-based, Pseudomonas aeruginosa; conditions: for minimal inhibitory concentration (MIC): P. aeruginosa PAO1, Sensitive bacterium
Method in brief: (§1)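 Minimal inhibitory concentration (μg/mL) was determined by agar plate dilution following the Japan Society of Chemotherapy method.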

S. marcescens TH-0447 = assay: MIC, agar plate dilution method, S. marcescens TH-0447; assay type: cell-based, Serratia marcescens; conditions: for minimal inhibitory concentration (MIC): S. marcescens TH-0447, AMK-resistant
Method in brief: as §1

S. aureus RN4220 = assay: MIC, agar plate dilution method, S. aureus RN4220; assay type: cell-based, Staphylococcus aureus; conditions: for minimal inhibitory concentration (MIC): S. aureus RN4220, Sensitive bacterium
Method in brief: as §1

P. aeruginosa PAO1/GN315 = assay: MIC, agar plate dilution method, P. aeruginosa PAO1/GN315; assay type: cell-based, Pseudomonas aeruginosa; conditions: for minimal inhibitory concentration (MIC): P. aeruginosa PAO1/GN315, AMK-resistant
Method in brief: as §1

[1] = test system: K. pneumoniae ATCC BAA-2146; assay: MIC, agar plate dilution method, K. pneumoniae ATCC BAA-2146; assay type: cell-based, Klebsiella pneumoniae; conditions: for minimal inhibitory concentration (MIC): K. pneumoniae ATCC BAA-2146, NDM-producing strain
Method in brief: as §1

[2] = test system: K. pneumoniae ATCC BAA-1705; assay: MIC, agar plate dilution method, K. pneumoniae ATCC BAA-1705; assay type: cell-based, Klebsiella pneumoniae; conditions: for minimal inhibitory concentration (MIC): K. pneumoniae ATCC BAA-1705, KPC-producing strain
Method in brief: as §1

E. coli JM109/pMW218 = assay: MIC, agar plate dilution method, E. coli JM109/pMW218; assay type: cell-based, Escherichia coli; conditions: for minimal inhibitory concentration (MIC): E. coli JM109/pMW218, Sensitive bacterium
Method in brief: as §1

S. aureus MF490 = assay: MIC, agar plate dilution method, S. aureus MF490; assay type: cell-based, Staphylococcus aureus; conditions: for minimal inhibitory concentration (MIC): S. aureus MF490, MRSA
Method in brief: as §1

S. marcescens GN6944 = assay: MIC, agar plate dilution method, S. marcescens GN6944; assay type: cell-based, Serratia marcescens; conditions: S. marcescens GN6944, GM-resistant
Method in brief: as §1

P. aeruginosa MSC17707 = assay: MIC, agar plate dilution method, P. aeruginosa MSC17707; assay type: cell-based, Pseudomonas aeruginosa; conditions: for minimal inhibitory concentration (MIC): P. aeruginosa MSC17707, AMK-resistant
Method in brief: as §1

S. aureus RN4220/pMS520 = assay: MIC, agar plate dilution method, S. aureus RN4220/pMS520; assay type: cell-based, Staphylococcus aureus; conditions: for minimal inhibitory concentration (MIC): S. aureus RN4220/pMS520, MRSA
Method in brief: as §1

P. aeruginosa MSC01035 = assay: MIC, agar plate dilution method, P. aeruginosa MSC01035; assay type: cell-based, Pseudomonas aeruginosa; conditions: P. aeruginosa MSC01035, ABK-resistant
Method in brief: as §1

E. faecium ATCC19434 = assay: MIC, agar plate dilution method, E. faecium ATCC19434; assay type: cell-based, Enterococcus faecium; conditions: for minimal inhibitory concentration (MIC): E. faecium ATCC19434
Method in brief: as §1

[3] = test system: A. baumannii ATCC BAA-1710; assay: MIC, agar plate dilution method, A. baumannii ATCC BAA-1710; assay type: cell-based, Acinetobacter baumannii; conditions: for minimal inhibitory concentration (MIC): A. baumannii ATCC BAA-1710, MDRA
Method in brief: as §1

Structure (SMILES) | minimal inhibitory concentration (MIC) (P. aeruginosa PAO1) [µg/mL] | minimal inhibitory concentration (MIC) (S. marcescens TH-0447) [µg/mL] | minimal inhibitory concentration (MIC) (S. aureus RN4220) [µg/mL] | minimal inhibitory concentration (MIC) (P. aeruginosa PAO1/GN315) [µg/mL] | minimal inhibitory concentration (MIC) [1] [µg/mL] | minimal inhibitory concentration (MIC) [2] [µg/mL] | minimal inhibitory concentration (MIC) (E. coli JM109/pMW218) [µg/mL] | minimal inhibitory concentration (MIC) (S. aureus MF490) [µg/mL] | minimal inhibitory concentration (MIC) (S. marcescens GN6944) [µg/mL] | minimal inhibitory concentration (MIC) (P. aeruginosa MSC17707) [µg/mL] | minimal inhibitory concentration (MIC) (S. aureus RN4220/pMS520) [µg/mL] | minimal inhibitory concentration (MIC) (P. aeruginosa MSC01035) [µg/mL] | minimal inhibitory concentration (MIC) (E. faecium ATCC19434) [µg/mL] | minimal inhibitory concentration (MIC) [3] [µg/mL] | further results
CNC1C(O[C@H]2OC(C)[C@@H](N)[C@H](O)C2O)O[C@H]2CC(N)[C@@H](O[C@H]3CC(O)[C@H](N)CC3N)OC2C1O (stereo partly shown) [Compound L5, 5,6″-dideoxyapramycin] | – | – | – | – | – | – | – | – | – | – | – | – | – | – | MIC (P. aeruginosa PAO1; Pseudomonas aeruginosa, PAO1, P. aeruginosa PAO1, Sensitive bacterium, read-out: minimal inhibitory concentration (MIC)): 4 µg/mL (≈ 7.88 µM); MIC (S. marcescens TH-0447; Serratia marcescens, TH0447, S. marcescens TH-0447, AMK-resistant, read-out: minimal inhibitory concentration (MIC)): 4 µg/mL (≈ 7.88 µM); MIC (S. aureus RN4220; Staphylococcus aureus, RN4220, S. aureus RN4220, Sensitive bacterium, read-out: minimal inhibitory concentration (MIC)): 2 µg/mL (≈ 3.94 µM); MIC (P. aeruginosa PAO1/GN315; Pseudomonas aeruginosa, read-out: minimal inhibitory concentration (MIC), P. aeruginosa PAO1/GN315, AMK-resistant): 4 µg/mL (≈ 7.88 µM); MIC ([1]; Klebsiella pneumoniae, ATCCBAA2146, K. pneumoniae ATCC BAA-2146, NDM-producing strain, read-out: minimal inhibitory concentration (MIC)): 1 µg/mL (≈ 1.97 µM); MIC ([2]; Klebsiella pneumoniae, ATCCBAA1705, K. pneumoniae ATCC BAA-1705, KPC-producing strain, read-out: minimal inhibitory concentration (MIC)): 1 µg/mL (≈ 1.97 µM); MIC (E. coli JM109/pMW218; Escherichia coli, JM109/PMW218, E. coli JM109/pMW218, Sensitive bacterium, read-out: minimal inhibitory concentration (MIC)): 1 µg/mL (≈ 1.97 µM); MIC (S. aureus MF490; Staphylococcus aureus, MRSA, read-out: minimal inhibitory concentration (MIC)): 4 µg/mL (≈ 7.88 µM); MIC (S. marcescens GN6944; Serratia marcescens, read-out: minimal inhibitory concentration (MIC)): 4 µg/mL (≈ 7.88 µM); MIC (P. aeruginosa MSC17707; Pseudomonas aeruginosa, MSC17707, P. aeruginosa MSC17707, AMK-resistant, read-out: minimal inhibitory concentration (MIC)): 8 µg/mL (≈ 15.8 µM); MIC (S. aureus RN4220/pMS520; Staphylococcus aureus, MRSA, read-out: minimal inhibitory concentration (MIC), S. aureus RN4220/pMS520, MRSA): 1 µg/mL (≈ 1.97 µM); MIC (P. aeruginosa MSC01035; Pseudomonas aeruginosa, read-out: minimal inhibitory concentration (MIC)): 8 µg/mL (≈ 15.8 µM); MIC (E. faecium ATCC19434; Enterococcus faecium, ATCC19434, E. faecium ATCC19434, read-out: minimal inhibitory concentration (MIC)): 8 µg/mL (≈ 15.8 µM); MIC ([3]; Acinetobacter baumannii, ATCCBAA1710, A. baumannii ATCC BAA-1710, MDRA, read-out: minimal inhibitory concentration (MIC)): 8 µg/mL (≈ 15.8 µM)
CN[C@@H]1[C@@H](O[C@H]2O[C@H](CO)[C@@H](N)C[C@H]2O)O[C@H]2C[C@@H](N)[C@@H](O[C@H]3C[C@@H](O)[C@H](N)C[C@@H]3N)O[C@@H]2[C@@H]1O [Compound M7, 5,3″-dideoxyapramycin] | 4 (≈ 7.88 µM) | 8 (≈ 15.8 µM) | 2 (≈ 3.94 µM) | 4 (≈ 7.88 µM) | 1 (≈ 1.97 µM) | 1 (≈ 1.97 µM) | 0.5 (≈ 0.985 µM) | 4 (≈ 7.88 µM) | 4 (≈ 7.88 µM) | 4 (≈ 7.88 µM) | 1 (≈ 1.97 µM) | 4 (≈ 7.88 µM) | 16 (≈ 31.5 µM) | 8 (≈ 15.8 µM) | –
CNC1C(OC2OC(CO)C(N)CC2O)OC2CC(N)C(OC3C(N)CC(N)C(O)C3O)OC2C1O (stereo not shown) [Compound M9, 3″-deoxy-5-epiapramycin] | 2 (≈ 3.82 µM) | 4 (≈ 7.64 µM) | 1 (≈ 1.91 µM) | 4 (≈ 7.64 µM) | 1 (≈ 1.91 µM) | 1 (≈ 1.91 µM) | 1 (≈ 1.91 µM) | 4 (≈ 7.64 µM) | 4 (≈ 7.64 µM) | 4 (≈ 7.64 µM) | 2 (≈ 3.82 µM) | 4 (≈ 7.64 µM) | 8 (≈ 15.3 µM) | 4 (≈ 7.64 µM) | –
CNC1C(OC2OC(CO)C(N)CC2O)OC2CC(N)C(OC3C(N)CC(N)C(O)C3F)OC2C1O (stereo not drawn) [Compound M10, 5,3″-dideoxy-5-epi-5-fluoroapramycin] | 4 (≈ 7.61 µM) | 8 (≈ 15.2 µM) | 2 (≈ 3.81 µM) | 4 (≈ 7.61 µM) | 1 (≈ 1.9 µM) | 1 (≈ 1.9 µM) | 0.5 (≈ 0.951 µM) | 8 (≈ 15.2 µM) | 4 (≈ 7.61 µM) | 4 (≈ 7.61 µM) | 2 (≈ 3.81 µM) | 4 (≈ 7.61 µM) | 8 (≈ 15.2 µM) | 8 (≈ 15.2 µM) | –
CN[C@@H]1[C@@H](O[C@H]2O[C@H](CO)[C@@H](N)C[C@H]2O)O[C@H]2C[C@@H](N)[C@@H](O[C@@H]3[C@@H](N)C[C@@H](N)C[C@@H]3O)O[C@@H]2[C@@H]1O [Compound N5, 6,3″-dideoxy-5-epiapramycin] | 4 (≈ 7.88 µM) | 8 (≈ 15.8 µM) | 2 (≈ 3.94 µM) | 4 (≈ 7.88 µM) | 2 (≈ 3.94 µM) | 2 (≈ 3.94 µM) | 1 (≈ 1.97 µM) | 4 (≈ 7.88 µM) | 4 (≈ 7.88 µM) | 8 (≈ 15.8 µM) | 2 (≈ 3.94 µM) | 8 (≈ 15.8 µM) | 8 (≈ 15.8 µM) | 8 (≈ 15.8 µM) | –
